Publication PMC6358775, “Elucidation of Vasodilation Response and Structure Activity Relationships of N^2,N^4-Disubstituted Quinazoline 2,4-Diamines in a Rat Pulmonary Artery Model” (Molecules, 2019)
In brackets after ≈: the same amount, converted by molar mass. Like-named read-outs stand apart in the source and are kept apart here.

Assays:
[1] = system: endothelium-denuded rat pulmonary arterial rings; experiment: Vasorelaxation of PE pre-contracted endothelium-denuded (E−) pulmonary arterial rings, organ bath; conditions: for IC50: Table S3, endothelium-denuded, read-out: E- Vaso. pIC50 (converted); for EC50: endothelium-denuded (E−) rings pre-contracted with 10^-5 M PE, cumulative 0.0001–30 µM, mean (SEM), n = 6, read-out: Vaso E− EC50 µM (SEM); for Emax: maximal relaxation, endothelium-denuded rings, up to 30 µM, mean ± SEM
physchem = conditions: for Log Sol / Sol. pH7.4 (µM): 6 h, pH 7.4; for solubility thermodynamic at 6 h: pH 7.4, aqueous buffer, thermodynamic from solid
Experimental: The solubility of the compounds under investigation here were assessed in phosphate buffer at pH 7.4 using the equilibrium shake-flask method.
An equilibrium shake-flask technique was used to determine the solubility of samples in PBS at pH 7.4. Approximately 1 mg of sample was placed in a 10 mL glass screw top vial and dissolved in 1 mL of 0.02 M PBS at pH 7.4. The solution was sonicated for 1 h, followed by shaking for 6 h (IKA HS 260). The saturated solution was then filtered using a nylon syringe filter. A standard solution of each sample was prepared by dissolving a weighed amount of the sample in 1 mL of DMSO. The concentration of sample dissolved in the PBS solution was determined by comparing the peak area of the PBS and DMSO standard using an Agilent 1100 series HPLC with a Sunshell C8 column (Chromanik Technologies Inc., Osaka, Japan). A 100 µL injection of the aqueous sample and 5 µL of DMSO solution (pre-diluted 100 fold using DMSO) were used.

A549 cells = experiment: MTT cytotoxicity assay in A549 cells; type: cell-based; conditions: Homo sapiens
Experimental: A 3-[4,5-dimehyl-2-thiazolyl]-2,5-diphenyl-2H-tetrazoliumbromide (MTT) assay was utilized to assess the concentration-response curves for quinazoline analogues as previously reported. A549 cells (ATCC CCL-185, human alveolar basal epithelial cell line) were used to account for the general cytotoxicity of compounds. Cells were cultured in DMEM medium containing fetal bovine serum (FBS; 10%), penicillin (10 U/mL), and streptomycin (100 U/mL). The temperature was maintained at 37 °C with 5% CO2. Cells were seeded for 16–18 h in DMEM and incubated for 72 h with the test compounds. After incubation, MTT (5 mg/mL in normal saline) was added with DMEM and incubated for 3 h. Careful decantation of the medium and addition of DMSO (50 µL) was done. Absorbance values were recorded at 570 nm after 5 min mechanical shaking of the microplate (Sunrise microplate reader, Tecan).
The activity was presented as the inhibitory concentration required to produce a 50% response (IC50). Prism 6.0 GraphPad Software Inc., (San Diego, CA, USA) was utilized for data fitting. 0.5% DMSO was used as the negative control.

[2] = system: endothelium-intact rat pulmonary arterial rings; experiment: Vasorelaxation of PE pre-contracted endothelium-intact (E+) pulmonary arterial rings, organ bath; conditions: Rattus norvegicus; for Emax: maximal relaxation, endothelium-intact rings, up to 30 µM, mean ± SEM; for IC50: Table S3, endothelium-intact, read-out: E+ Vaso. pIC50 (converted); for EC50: endothelium-intact (E+) rings pre-contracted with 10^-5 M PE, cumulative 0.0001–30 µM, mean (SEM), n = 6, read-out: Vaso E+ EC50 µM (SEM)
[3] = system: PE-induced contraction of endothelium-denuded pulmonary arterial rings; experiment: Inhibition of phenylephrine (PE)-induced contraction in endothelium-denuded arterial rings; design: species or system rat; conditions: 10 µM compound, 15 min pre-incubation, E− rings; for inhibition at 10 µM: Rattus norvegicus, PE 0.0001–100 µM, n = 3–5, read-out: % PE-Contraction Inhibition (SEM); for maximal contraction induced by PE attenuated to: remaining contraction
Experimental: These experiments were undertaken to assess the pharmacological activity of quinazoline analogues against the structurally related α1 receptor blocker (prazosin). In contrast to previous vasorelaxant experiments, this protocol was developed to determine the inhibitory effect of pre-incubated (15 min) inhibitors (10 µM) on the concentration-dependent vasoconstriction induced by cumulative addition of PE (0.0001–100 µM) in endothelium-denuded pulmonary arterial rings. Figure 5 illustrates the real time contractile response shown by the pulmonary arterial ring upon cumulative addition of PE, which evoked a concentration-dependent vasoconstriction, increasing the vessel’s tension.
After anesthesia with thiopental sodium (100 mg/kg, i.p.) (Anesthal®, Jagsonpsal Pharmaceutical Ltd., Haryana, India), rats were euthanized by exsanguination. Lungs were carefully excised, cleaned by the removal of connective tissue, and placed in cold physiological Krebs’ solution composed of (mM): NaCl 122; KCl 5; N-[2-hydroxyethyl] piperazine-N′-[2-ethane-sulfonic acid] (HEPES) 10; KH2PO4 0.5; NaH2PO4 0.5; MgCl2 1; CaCl2 1.8; and glucose 11 adjusted to pH 7.3 using 1 M NaOH. The pulmonary artery was isolated from the lungs and cut into rings approximately 2 mm in length before mounting in the organ bath chambers. Endothelial cells were mechanically removed in some experiments by gentle rubbing of the inner surface with forceps. Pulmonary arterial rings were mounted on intraluminal wires via stainless steel hooks maintaining the resting tension at 1 g and rings were equilibrated for 30 min before obtaining a stable contraction with 10^−5 M phenylephrine (PE). The rings were immersed in 10 mL baths containing physiological Krebs’ solution at 37 °C, which was continuously bubbled with air. Force transducers were connected with intraluminal wires to measure isometric tension via a Mac Lab A/D converter (Chart V5, A.D. Instruments, Castle Hill, NSW, Australia). The functional integrity of the endothelium in the vessels was confirmed by vasorelaxation of ≥70% with sequential addition of 10^−5 M acetylcholine (ACh) to pre-contracted vessels with 10^−5 M PE. Relaxations ≤30% to 10^−5 M ACh in vessels rubbed mechanically were considered successfully endothelium denuded.
The protocol included the assessment of the inhibitory vasoconstriction effect of quinazoline test compounds on endothelium-denuded arterial rings. Briefly, the arterial rings were treated with the α1-receptor blocker (prazosin) or test compound at a concentration of 10 µM for 15 min before construction of the second concentration response curve with cumulative addition of PE (0.0001–100 µM). The same conditions were used to test the effects of the solvent (DMSO 0.2%). The results were obtained in percentages by comparison of the maximum contraction without treatment with the contraction in the presence of the test compound [24, 36, 37].

[4] = A549, MTT, 72 h incubation, read-out: A549 IC50, µM (S.D.)
[5] = Table S3, A549, read-out: Cytox. pIC50 (converted)

c1ccc(CNc2nc(Nc3ccccc3)nc3ccccc23)cc1 [Compound 1]
IC50 [1]: 13.5 µM
EC50 [1]: 13.5 µM
Emax [1]: 86.4 ± 4.03%
Log Sol (physchem): -0.39
Sol. pH7.4 (µM) (physchem): 0.41 µM
solubility thermodynamic at 6 h (physchem): 130 µg/mL (≈ 398 µM)
IC50 (A549 cells; [4]): 12.3 µM
IC50 (A549 cells; [5]): 12.3 µM
Emax [2]: 90 ± 5.64%
IC50 [2]: 5.5 µM
EC50 [2]: 5.54 µM

c1ccc(CNc2nc(Nc3ccc(N4CCOCC4)cc3)nc3ccccc23)cc1 [Compound 2]
IC50 [1]: 12 µM
EC50 [1]: 12 µM
Emax [1]: 85.7 ± 6.05%
Log Sol (physchem): -0.22
Sol. pH7.4 (µM) (physchem): 0.60 µM
solubility thermodynamic at 6 h (physchem): 250 µg/mL (≈ 608 µM)
IC50 (A549 cells; [4]): 12.1 µM
IC50 (A549 cells; [5]): 12 µM
Emax [2]: 94.7 ± 3.33%
IC50 [2]: 5.01 µM
EC50 [2]: 4.98 µM
inhibition at 10 µM [3]: 56.6%
maximal contraction induced by PE attenuated to [3]: 43.38 ± 5.90%

CN(C)S(=O)(=O)c1ccc(Nc2nc(NCc3ccccc3)c3ccccc3n2)cc1 [Compound 3]
IC50 [1]: 6.31 µM
EC50 [1]: 6.25 µM
Emax [1]: 64.3 ± 5.31%
Log Sol (physchem): -0.06
Sol. pH7.4 (µM) (physchem): 0.88 µM
solubility thermodynamic at 6 h (physchem): 380 µg/mL (≈ 877 µM)
IC50 (A549 cells; [4]): 18.3 µM
IC50 (A549 cells; [5]): 18.2 µM
Emax [2]: 82.4 ± 5.9%
IC50 [2]: 3.55 µM
EC50 [2]: 3.59 µM

NS(=O)(=O)c1ccc(Nc2nc(NCc3ccccc3)c3ccccc3n2)cc1 [Compound 4]
IC50 [1]: 8.32 µM
EC50 [1]: 8.29 µM
Emax [1]: 78.5 ± 9.19%
Log Sol (physchem): -1.52
Sol. pH7.4 (µM) (physchem): 0.03 µM
solubility thermodynamic at 6 h (physchem): 10 µg/mL (≈ 24.7 µM)
IC50 (A549 cells; [4]): 23 µM
IC50 (A549 cells; [5]): 22.9 µM
Emax [2]: 88.5 ± 5.58%
IC50 [2]: 3.16 µM
EC50 [2]: 3.13 µM

NS(=O)(=O)c1cccc(Nc2nc(NCc3ccccc3)c3ccccc3n2)c1 [Compound 5]
IC50 [1]: 1.15 µM
EC50 [1]: 1.15 µM
Emax [1]: 95.8 ± 2.4%
Log Sol (physchem): 0.14
Sol. pH7.4 (µM) (physchem): 1.37 µM
solubility thermodynamic at 6 h (physchem): 560 µg/mL (≈ 1380 µM)
IC50 (A549 cells; [4]): 11.2 µM
IC50 (A549 cells; [5]): 11.2 µM
Emax [2]: 91.7 ± 3.77%
IC50 [2]: 1.62 µM
EC50 [2]: 1.63 µM

c1ccc(Nc2nc(NCc3cccs3)c3ccccc3n2)cc1 [Compound 6]
IC50 [1]: 9.33 µM
EC50 [1]: 9.51 µM
Emax [1]: 91.2 ± 5.26%
Log Sol (physchem): -0.40
Sol. pH7.4 (µM) (physchem): 0.40 µM
solubility thermodynamic at 6 h (physchem): 130 µg/mL (≈ 391 µM)
IC50 (A549 cells; [4]): 27.8 µM
IC50 (A549 cells; [5]): 27.5 µM
Emax [2]: 88 ± 7.39%
IC50 [2]: 9.33 µM
EC50 [2]: 9.42 µM

O=C(Nc1ccccc1)Nc1ccc(Nc2nc(NCc3cccs3)c3ccccc3n2)cc1 [Compound 7]
IC50 [1]: > 30 µM
EC50 [1]: > 30 µM
Emax [1]: 22.3 ± 4.4%
Log Sol (physchem): -0.66
Sol. pH7.4 (µM) (physchem): 0.22 µM
solubility thermodynamic at 6 h (physchem): 100 µg/mL (≈ 214 µM)
IC50 (A549 cells; [4]): 2.91 µM
IC50 (A549 cells; [5]): 2.88 µM
Emax [2]: 76 ± 5.73%
IC50 [2]: 4.07 µM
EC50 [2]: 4.1 µM
inhibition at 10 µM [3]: 43.6%
maximal contraction induced by PE attenuated to [3]: 57.57 ± 5.99%
